# Reference: US12178210B2, “Insect attractant and killing system” (priority 2020, dated 2024)
# Where two headings read alike, the source gives them in different places.
# Details: field, Córdoba, initial amount 15 g, UV8, 1.6 mm orifice
# Protocol: The devices consisted of a pesticide coated insecticide transfer envelope (˜10 mg of deltamethrin) equipped with a hook containing an attractant lure on the inside of the envelope (see FIG. 3). Attractant lures inside Magnet™ ORO were labelled and individually weighed at different periods of time. Qualitative identity of the remaining material was assessed by means of FTIR and compared with standards. Each lure was constructed using polypropylene/calcium carbonate film (UV8) as the membrane and Scotchpak™ (3M) polyester laminate film as the impermeable barrier material and a 1.6 mm ( 1/16 in) diameter spherical punch in the impermeable layer exposing the membrane and an ˜8 mm ( 5/16 in) diameter heat seal around the circumference of the punch (referred to as a ring seal). Each prototype contained 15 g of ammonium carbonate as the volatile insect attractant.
# The trials were performed in Córdoba, Spain June-November 2019 where the average temperatures (high/low) are 32/17° C. (90/62° F.) in June, 37/19° C. (98/67° F.) in July, 35/19° C. (95/66° F.) in August, 32/18° C. (90/64° F.) in September, 24/13° C. (76/55° F.) in October, and 18/8° C. (65/47° F.) in November.
smiles,measurement,setting,value
"N.N.O=C(O)O [Ammonium Carbonate, ammonium carbonate]",Average Mass Loss,"day 0 (Jul. 22, 2019)",0.0890 g/day
same,Average Mass Loss,"day 9 (Jul. 31, 2019)",0.1082 g/day
same,Average Mass Loss,"day 21 (Aug. 12, 2019)",0.0948 g/day
same,Average Mass Loss,"day 28 (Aug. 19, 2019)",0.0976 g/day
same,Average Mass Loss,"day 45 (Sep. 5, 2019)",0.0498 g/day
same,Average Mass Loss,"day 57 (Sep. 17, 2019)",0.0111 g/day
same,Average Mass Loss,"day 72 (Oct. 2, 2019)",0.0191 g/day
same,Average Mass Loss,"day 80 (Oct. 10, 2019)",0.0299 g/day
same,Average Mass Loss,"day 91 (Oct. 21, 2019)",0.0001 g/day
same,Average Mass Loss,"day 105 (Nov. 4, 2019)",0.0046 g/day
